From patent publication US10519099B2, “Cystobactamides” (priority 2014, dated 2019)
Converted amounts (≈) assume the structure as drawn. Read-outs that look alike come from different tables or passages of the source.

Tests used:
[1] = tested on: Escherichia coli MI [gyrA(S83L)]; assay: MIC microdilution, E. coli MI [gyrA(S83L)]; type: cell-based; settings: read-out: MIC Escherichia coli MI [gyrA(S83L)]
Experimental: (§1) Indicator strains used in susceptibility assays were either part of our strain collection or purchased from the German Collection of Microorgansims and Cell Cultures (DSMZ) or from the American Type Culture Collection (ATCC). E. coli strain WT and corresponding E. coli mutants were kindly provided by Prof. Dr. P. Heisig, Pharmaceutical Biology and Microbiology, University of Hamburg. E. coli strains JW0401-1 (WT) and Δtsx were obtained from the CGSC collection.
(§2) MIC values were determined in standardized microdilution assays. Overnight cultures were diluted in the appropriate growth medium to achieve an inoculum of 10^4-10^6 cfu/mL. Yeasts were grown in Myc medium (1% phytone peptone, 1% glucose, 50 mM HEPES, pH 7.0), S. pneumonia and Enterococcus spp. in tryptic soy broth (TSB: 1.7% peptone casein, 0.3% peptone soymeal, 0.25% glucose, 0.5% NaCl, 0.25% K2HPO4; pH 7.3); M. smegmatis in Middlebrook 7H9 medium supplemented with 10% Middlebrook ADC enrichment and 2 ml/I glycerol). All other listed bacteria were grown in Müller-Hinton broth (0.2% beef infusion solids, 1.75% casein hydrolysate, 0.15% starch, pH 7.4). […] Growth inhibition was assessed by visual inspection and the MIC was defined as the lowest concentration of compound that inhibited visible growth.

[2] = tested on: Enterococcus faecalis ATCC29212; assay: MIC microdilution, Enterococcus faecalis ATCC29212; type: cell-based
Experimental: as §1, §2

[3] = tested on: Mycobacterium smegmatis ATCC700084; assay: MIC microdilution, Mycobacterium smegmatis ATCC700084; type: cell-based; settings: Mycolicibacterium smegmatis
Experimental: as §1, §2

[4] = tested on: E. coli WT-III [marRΔ74bp]; assay: MIC microdilution, E. coli WT-III [marRΔ74bp]; type: cell-based, Escherichia coli; settings: for MIC E. coli WT-III [marRΔ74bp]: Gram-negative set; for MIC Escherichia coli WTIII (marRΔ74bp): larger panel
Experimental: as §1
(§3) MIC values were determined in standardized microdilution assays. Overnight cultures were diluted in the appropriate growth medium to achieve an inoculum of 10^4-10^6 cfu/mL. Yeasts were grown in Myc medium (1% phytone peptone, 1% glucose, 50 mM HEPES, pH 7.0), S. pneumonia and Enterococcus spp. in tryptic soy broth (TSB: 1.7% peptone casein, 0.3% peptone soymeal, 0.25% glucose, 0.5% NaCl, 0.25% K2HPO4; pH 7.3); M. smegmatis in Middlebrook 7H9 medium supplemented with 10% Middlebrook ADC enrichment and 2 ml/I glycerol). All other listed bacteria were grown in Müller-Hinton broth (0.2% beef infusion solids, 1.75% casein hydrolysate, 0.15% starch, pH 7.4). Cystobactamides and reference drugs were added directly to the cultures in sterile 96-well plates as duplicates and serial dilutions were prepared. Microorganisms were grown on a microplate shaker (750 rpm, 30-37° C., 18-48 h), except S. pneumonia, which was grown at non-shaking conditions (37° C., 5% CO2, 18 h). Growth inhibition was assessed by visual inspection and the MIC was defined as the lowest concentration of compound that inhibited visible growth.

[5] = tested on: Candida albicans DSM-1665; assay: MIC microdilution, Candida albicans DSM-1665; type: cell-based
Experimental: as §1, §2

[6] = tested on: Escherichia coli (TolC-deficient); assay: MIC microdilution, E. coli (TolC-deficient); type: cell-based; settings: Escherichia coli, read-out: MIC Escherichia coli (TolC-deficient)
Experimental: as §1, §2

[7] = tested on: E. coli DSM-26863 (tolC3); assay: MIC microdilution, E. coli DSM-26863 (tolC3); type: cell-based, Escherichia coli; settings: Escherichia coli
Experimental: as §1, §3

E. coli DSM-1116 = assay: MIC microdilution, E. coli DSM-1116; type: cell-based, Escherichia coli; settings: Escherichia coli, DSM1116
Experimental: as §1, §3

[8] = tested on: Enterobacter aerogenes DSM-30053; assay: MIC microdilution, Enterobacter aerogenes DSM-30053; type: cell-based; settings: Klebsiella aerogenes
Experimental: as §1, §2

[9] = tested on: Chromobacterium violaceum DSM-30191; assay: MIC microdilution, Chromobacterium violaceum DSM-30191; type: cell-based
Experimental: as §1, §2

[10] = tested on: Pseudomonas aeruginosa ATCC27853; assay: MIC microdilution, P. aeruginosa ATCC27853; type: cell-based; settings: Pseudomonas aeruginosa
Experimental: as §1, §3

[11] = tested on: Enterobacter cloacae DSM-30054; assay: MIC microdilution, Enterobacter cloacae DSM-30054; type: cell-based; settings: Enterobacter cloacae, DSM30054, read-out: MIC Enterobacter cloacae DSM-30054
Experimental: Dr. P. Heisig, Pharmaceutical Biology and Microbiology, University of Hamburg.
Overnight cultures were diluted in the appropriate growth medium to achieve an inoculum of 10^4-10^6 cfu/mL. […] Cystobactamides and reference drugs were added directly to the cultures in sterile 96-well plates as duplicates and serial dilutions were prepared. Microorganisms were grown on a microplate shaker (750 rpm, 30-37° C., 18-48 h), except S. pneumonia, which was grown at non-shaking conditions (37° C., 5% CO2, 18 h). Growth inhibition was assessed by visual inspection and the MIC was defined as the lowest concentration of compound that inhibited visible growth.

E. coli JW0401-1 (WT) = assay: MIC microdilution, E. coli JW0401-1 (WT); type: cell-based, Escherichia coli; settings: Escherichia coli; Gram-negative set
Experimental: as §1, §2

E. coli Δtsx = assay: MIC microdilution, E. coli Δtsx; type: cell-based, Escherichia coli; settings: Gram-negative set
Experimental: as §1, §2

P. aeruginosa gyrase = molecular target: T1, P. aeruginosa gyrase (Pseudomonas aeruginosa, UniProt P48372+Q9I7C2); assay: P. aeruginosa gyrase DNA supercoiling assay; type: biochemical; settings: read-out: IC50 Pa gyrase (sc)
T1 construct: purchased Inspiralis, Norwich, UK
Experimental: (§4) To test the anti-gyrase activity of cystobactamides, commercial E. coli and P. aeruginosa gyrase supercoiling kits (Inspiralis, Norwich, UK) were used. For standard reactions 0.5 μg relaxed plasmid were mixed with 1 unit gyrase in 1× reaction buffer (see kit manual) and incubated for 30 min at 37° C. The reactions were quenched by the addition of DNA gel loading buffer containing 10% (w/v) SDS. The samples were separated on 1% (w/v) agarose gels and DNA was visualized using EtBr. All natural products stock solutions and dilutions were prepared in 100% DMSO and added to the supercoiling reactions giving a final DMSO concentration of 2% (v/v).

[12] = tested on: Staphylococcus aureus ATCC29213; assay: MIC microdilution, Staphylococcus aureus ATCC29213; type: cell-based; settings: ATCC29213, read-out: MIC Staphylococcus aureus ATCC29213
Experimental: as §1, §2

E. coli gyrase = molecular target: T2, E. coli gyrase (Escherichia coli, UniProt P0AES4+P0AES6); assay: E. coli gyrase DNA supercoiling assay; type: biochemical; settings: read-out: IC50 Ec gyrase (sc)
T2 construct: purchased Inspiralis, Norwich, UK
Experimental: as §4

[13] = DSM26863, read-out: MIC E. coli DSM-26863 (tolC3)
[14] = DSM26863, read-out: MIC Escherichia coli DSM-26863 (tolC3)
[15] = Gram-negative set, read-out: MIC E. coli DSM-1116
[16] = larger panel, read-out: MIC Escherichia coli DSM-1116

O=C(O)c1cn(C2CC2)c2cc(N3CCNCC3)c(F)cc2c1=O [CP, Ciprofloxacin, reference compound] was tested, and the MIC [1] was 0.4 to 0.8 µg/mL (≈ 1.21 to 2.41 µM), the MIC ([2]; ATCC29212, larger panel, read-out: MIC Enterococcus faecalis ATCC29212) was 0.8 µg/mL (≈ 2.41 µM) and the MIC ([3]; ATCC700084, larger panel, read-out: MIC Mycobacterium smegmatis ATCC700084) was 0.2 to 0.4 µg/mL (≈ 0.604 to 1.21 µM). For the same compound, the “MIC E. coli WT-III [marRΔ74bp]” value [4] was 0.1 µg/mL (≈ 0.302 µM), the “MIC Escherichia coli WTIII (marRΔ74bp)” value [4] was 0.1 µg/mL (≈ 0.302 µM) and the MIC ([5]; DSM1665, larger panel, read-out: MIC Candida albicans DSM-1665) was over 6.4 µg/mL. The MIC [6] was 0.01 µg/mL (≈ 0.0302 µM), the MIC [7, 13] was at most 0.003 µg/mL and the MIC [7, 14] was 0.003 µg/mL (≈ 0.00905 µM). The MIC (E. coli DSM-1116; [15]) was 0.01 µg/mL (≈ 0.0302 µM), the MIC (E. coli DSM-1116; [16]) was 0.013 µg/mL (≈ 0.0392 µM) and the MIC ([8]; DSM30053, larger panel, read-out: MIC Enterobacter aerogenes DSM-30053) was 0.1 to 0.2 µg/mL (≈ 0.302 to 0.604 µM). The MIC ([9]; DSM30191, larger panel, read-out: MIC Chromobacterium violaceum DSM-30191) was 0.006 to 0.013 µg/mL (≈ 0.0181 to 0.0392 µM) and the MIC ([10]; ATCC27853, larger panel, read-out: MIC Pseudomonas aeruginosa ATCC27853) was 0.1 to 0.2 µg/mL (≈ 0.302 to 0.604 µM).

Compound COC(C(N)=O)C(NC(=O)c1ccc(NC(=O)c2ccc([N+](=O)[O-])cc2)cc1)C(=O)Nc1ccc(C(=O)Nc2ccc(C(=O)Nc3ccc(C(=O)O)cc3OC(C)C)c(O)c2OC(C)C)cc1 (stereo not drawn) [Cys 919-2] has an MIC [1] of 4 µg/mL (≈ 4.35 µM), an MIC ([2]; ATCC29212, read-out: MIC Enterococcus faecalis ATCC29212) of 0.1 µg/mL (≈ 0.109 µM) and an MIC [11] of over 64 µg/mL. For the same compound, the MIC ([3]; ATCC700084, read-out: MIC Mycobacterium smegmatis ATCC700084) was over 64 µg/mL, the “MIC E. coli WT-III [marRΔ74bp]” value [4] was over 64 µg/mL and the “MIC Escherichia coli WTIII (marRΔ74bp)” value [4] was 64 µg/mL (≈ 69.6 µM). The MIC ([5]; DSM1665, read-out: MIC Candida albicans DSM-1665) was over 64 µg/mL, the MIC (E. coli JW0401-1 (WT)) was 1 µg/mL (≈ 1.09 µM) and the “MIC E. coli Δtsx” value (E. coli Δtsx) was 1 µg/mL (≈ 1.09 µM). The MIC [7, 13] was 0.25 µg/mL (≈ 0.272 µM), the MIC [7, 14] was 0.5 to 1 µg/mL (≈ 0.544 to 1.09 µM) and the MIC (E. coli DSM-1116; [15]) was 0.5 µg/mL (≈ 0.544 µM). The MIC (E. coli DSM-1116; [16]) was 1 µg/mL (≈ 1.09 µM), the IC50 (P. aeruginosa gyrase) was 340 nM and the MIC [12] was 0.1 µg/mL (≈ 0.109 µM). It also gave an IC50 (E. coli gyrase) of 670 nM, an MIC ([8]; DSM30053, read-out: MIC Enterobacter aerogenes DSM-30053) of over 64 µg/mL and an MIC ([9]; DSM30191, read-out: MIC Chromobacterium violaceum DSM-30191) of 15 µg/mL (≈ 16.3 µM). For the same compound, the MIC ([10]; ATCC27853, read-out: MIC Pseudomonas aeruginosa ATCC27853) was over 64 µg/mL.
